Key:
ISC-enriched organoids [1] = assay: Primary screen, 384-well 2.5-D organoid differentiation (ENR+CD, 6 days, Target Selective Inhibitor Library, vs whole-plate median): ATP (CellTiter-Glo 3D, CTG); conditions: for Dose.FC.CTG / Z.CTG: primary screen; for Dose.FC.CTG: ENR+CD 6 days, FC vs plate median; for Z.CTG: standard z score of FC
ISC-enriched organoids [2] = assay: Primary screen, 384-well 2.5-D organoid differentiation (ENR+CD, 6 days): basal lysozyme secretion (LYZ.NS); format: cell-based, murine; conditions: for Dose.FC.LYZ.NS / Z.LYZ.NS: primary screen; for Dose.FC.LYZ.NS: ENR+CD 6 days, FC vs plate median; for Z.LYZ.NS: standard z score of FC
Description: (§1) High-throughput screening.

ISC-enriched organoids [3] = assay: Primary screen, 384-well 2.5-D organoid differentiation (ENR+CD, 6 days): carbachol-induced lysozyme secretion (LYZ.S); format: cell-based, murine; conditions: for Dose.FC.LYZ.S: primary screen, ENR+CD 6 days, FC vs plate median
Description: as §1

[4] = dose 0.08 uM (1st of 4 lines per treatment; dose not printed in this part)
[5] = dose 0.40 uM (2nd of 4 lines per treatment; dose not printed in this part)
[6] = dose 2.00 uM (3rd of 4 lines per treatment; dose not printed in this part)
[7] = dose 10.00 uM (4th of 4 lines per treatment; dose not printed in this part)

## CC(C)N(CC[C@H](c1ccccc1)c1cc(CO)ccc1O)C(C)C [4CE°8C]
ISC-enriched organoids [1]; [4]
  SSMD.CTG_Rep (strictly standardized mean difference): −0.402
ISC-enriched organoids [1]; [5]
  SSMD.CTG_Rep (strictly standardized mean difference): 0.023
ISC-enriched organoids [1]; [6]
  SSMD.CTG_Rep (strictly standardized mean difference): −0.340
ISC-enriched organoids [1]; [7]
  SSMD.CTG_Rep (strictly standardized mean difference): −0.109
ISC-enriched organoids [1]; dose 0.08 uM
  Dose.FC.CTG: −0.111 log 2 fold change
  Z.CTG: −0.265
ISC-enriched organoids [1]; dose 0.40 uM
  Dose.FC.CTG: 0.007 log 2 fold change
  Z.CTG: 0.018
ISC-enriched organoids [1]; dose 2.00 uM
  Dose.FC.CTG: −0.162 log 2 fold change
  Z.CTG: −0.387
ISC-enriched organoids [1]; dose 10.00 uM
  Dose.FC.CTG: −0.039 log 2 fold change
  Z.CTG: −0.094
ISC-enriched organoids [2]; [4]
  SSMD.LYZ.NS_Rep (strictly standardized mean difference): 0.497
ISC-enriched organoids [2]; [5]
  SSMD.LYZ.NS_Rep (strictly standardized mean difference): 0.226
ISC-enriched organoids [2]; [6]
  SSMD.LYZ.NS_Rep (strictly standardized mean difference): 0.128
ISC-enriched organoids [2]; [7]
  SSMD.LYZ.NS_Rep (strictly standardized mean difference): −0.861
ISC-enriched organoids [2]; dose 0.08 uM
  Dose.FC.LYZ.NS: 0.069 log 2 fold change
  Z.LYZ.NS: 0.601
ISC-enriched organoids [2]; dose 0.40 uM
  Dose.FC.LYZ.NS: 0.047 log 2 fold change
  Z.LYZ.NS: 0.413
ISC-enriched organoids [2]; dose 2.00 uM
  Dose.FC.LYZ.NS: 0.016 log 2 fold change
  Z.LYZ.NS: 0.138
ISC-enriched organoids [2]; dose 10.00 uM
  Dose.FC.LYZ.NS: −0.095 log 2 fold change
  Z.LYZ.NS: −0.827
ISC-enriched organoids [3]; [4]
  SSMD.LYZ.S_Rep (strictly standardized mean difference): 0.194
  Z.LYZ.S (standard z score): 0.205
ISC-enriched organoids [3]; [5]
  SSMD.LYZ.S_Rep (strictly standardized mean difference): 0.053
  Z.LYZ.S (standard z score): 0.073
ISC-enriched organoids [3]; [6]
  SSMD.LYZ.S_Rep (strictly standardized mean difference): −0.217
  Z.LYZ.S (standard z score): −0.358
ISC-enriched organoids [3]; [7]
  SSMD.LYZ.S_Rep (strictly standardized mean difference): −0.707
  Z.LYZ.S (standard z score): −0.836
ISC-enriched organoids [3]; dose 0.08 uM
  Dose.FC.LYZ.S: 0.032 log 2 fold change
ISC-enriched organoids [3]; dose 0.40 uM
  Dose.FC.LYZ.S: 0.011 log 2 fold change
ISC-enriched organoids [3]; dose 2.00 uM
  Dose.FC.LYZ.S: −0.055 log 2 fold change
ISC-enriched organoids [3]; dose 10.00 uM
  Dose.FC.LYZ.S: −0.129 log 2 fold change

## O=C(O)c1ccc(N2C(=O)/C(=C\c3ccc(-c4ccc([N+](=O)[O-])cc4)o3)C=C2c2ccccc2)cc1 [4E1RCat]
ISC-enriched organoids [1]; [4]
  SSMD.CTG_Rep (strictly standardized mean difference): 0.790
ISC-enriched organoids [1]; [5]
  SSMD.CTG_Rep (strictly standardized mean difference): 0.559
ISC-enriched organoids [1]; [6]
  SSMD.CTG_Rep (strictly standardized mean difference): 0.022
ISC-enriched organoids [1]; [7]
  SSMD.CTG_Rep (strictly standardized mean difference): −0.026
ISC-enriched organoids [1]; dose 0.08 uM
  Dose.FC.CTG: 0.246 log 2 fold change
  Z.CTG: 0.587
ISC-enriched organoids [1]; dose 0.40 uM
  Dose.FC.CTG: 0.362 log 2 fold change
  Z.CTG: 0.864
ISC-enriched organoids [1]; dose 2.00 uM
  Dose.FC.CTG: 0.006 log 2 fold change
  Z.CTG: 0.015
ISC-enriched organoids [1]; dose 10.00 uM
  Dose.FC.CTG: −0.011 log 2 fold change
  Z.CTG: −0.026
ISC-enriched organoids [2]; [4]
  SSMD.LYZ.NS_Rep (strictly standardized mean difference): 0.883
ISC-enriched organoids [2]; [5]
  SSMD.LYZ.NS_Rep (strictly standardized mean difference): −0.121
ISC-enriched organoids [2]; [6]
  SSMD.LYZ.NS_Rep (strictly standardized mean difference): 0.437
ISC-enriched organoids [2]; [7]
  SSMD.LYZ.NS_Rep (strictly standardized mean difference): 0.053
ISC-enriched organoids [2]; dose 0.08 uM
  Dose.FC.LYZ.NS: 0.100 log 2 fold change
  Z.LYZ.NS: 0.874
ISC-enriched organoids [2]; dose 0.40 uM
  Dose.FC.LYZ.NS: −0.018 log 2 fold change
  Z.LYZ.NS: −0.154
ISC-enriched organoids [2]; dose 2.00 uM
  Dose.FC.LYZ.NS: 0.151 log 2 fold change
  Z.LYZ.NS: 1.316
ISC-enriched organoids [2]; dose 10.00 uM
  Dose.FC.LYZ.NS: 0.007 log 2 fold change
  Z.LYZ.NS: 0.062
ISC-enriched organoids [3]; [4]
  SSMD.LYZ.S_Rep (strictly standardized mean difference): 0.712
  Z.LYZ.S (standard z score): 0.690
ISC-enriched organoids [3]; [5]
  SSMD.LYZ.S_Rep (strictly standardized mean difference): 0.185
  Z.LYZ.S (standard z score): 0.247
ISC-enriched organoids [3]; [6]
  SSMD.LYZ.S_Rep (strictly standardized mean difference): 0.311
  Z.LYZ.S (standard z score): 0.316
ISC-enriched organoids [3]; [7]
  SSMD.LYZ.S_Rep (strictly standardized mean difference): 0.321
  Z.LYZ.S (standard z score): 0.530
ISC-enriched organoids [3]; dose 0.08 uM
  Dose.FC.LYZ.S: 0.107 log 2 fold change
ISC-enriched organoids [3]; dose 0.40 uM
  Dose.FC.LYZ.S: 0.038 log 2 fold change
ISC-enriched organoids [3]; dose 2.00 uM
  Dose.FC.LYZ.S: 0.049 log 2 fold change
ISC-enriched organoids [3]; dose 10.00 uM
  Dose.FC.LYZ.S: 0.082 log 2 fold change

## CC(C)N(CC[C@H](c1ccccc1)c1cc(CO)ccc1O)C(C)C [5-hydroxymethyl Tolterodine (PNU 200577, 5-HMT, 5-HM)]
ISC-enriched organoids [1]; [4]
  SSMD.CTG_Rep (strictly standardized mean difference): −0.118
ISC-enriched organoids [1]; [5]
  SSMD.CTG_Rep (strictly standardized mean difference): 0.291
ISC-enriched organoids [1]; [6]
  SSMD.CTG_Rep (strictly standardized mean difference): 0.114
ISC-enriched organoids [1]; [7]
  SSMD.CTG_Rep (strictly standardized mean difference): 0.061
ISC-enriched organoids [1]; dose 0.08 uM
  Dose.FC.CTG: −0.062 log 2 fold change
  Z.CTG: −0.149
ISC-enriched organoids [1]; dose 0.40 uM
  Dose.FC.CTG: 0.087 log 2 fold change
  Z.CTG: 0.207
ISC-enriched organoids [1]; dose 2.00 uM
  Dose.FC.CTG: 0.034 log 2 fold change
  Z.CTG: 0.082
ISC-enriched organoids [1]; dose 10.00 uM
  Dose.FC.CTG: 0.017 log 2 fold change
  Z.CTG: 0.040
ISC-enriched organoids [2]; [4]
  SSMD.LYZ.NS_Rep (strictly standardized mean difference): 0.915
ISC-enriched organoids [2]; [5]
  SSMD.LYZ.NS_Rep (strictly standardized mean difference): 0.760
ISC-enriched organoids [2]; [6]
  SSMD.LYZ.NS_Rep (strictly standardized mean difference): 0.947
ISC-enriched organoids [2]; [7]
  SSMD.LYZ.NS_Rep (strictly standardized mean difference): 0.223
ISC-enriched organoids [2]; dose 0.08 uM
  Dose.FC.LYZ.NS: 0.184 log 2 fold change
  Z.LYZ.NS: 1.599
ISC-enriched organoids [2]; dose 0.40 uM
  Dose.FC.LYZ.NS: 0.076 log 2 fold change
  Z.LYZ.NS: 0.665
ISC-enriched organoids [2]; dose 2.00 uM
  Dose.FC.LYZ.NS: 0.154 log 2 fold change
  Z.LYZ.NS: 1.344
ISC-enriched organoids [2]; dose 10.00 uM
  Dose.FC.LYZ.NS: 0.034 log 2 fold change
  Z.LYZ.NS: 0.293
ISC-enriched organoids [3]; [4]
  SSMD.LYZ.S_Rep (strictly standardized mean difference): 0.460
  Z.LYZ.S (standard z score): 0.417
ISC-enriched organoids [3]; [5]
  SSMD.LYZ.S_Rep (strictly standardized mean difference): 0.266
  Z.LYZ.S (standard z score): 0.231
ISC-enriched organoids [3]; [6]
  SSMD.LYZ.S_Rep (strictly standardized mean difference): 0.174
  Z.LYZ.S (standard z score): 0.152
ISC-enriched organoids [3]; [7]
  SSMD.LYZ.S_Rep (strictly standardized mean difference): −0.042
  Z.LYZ.S (standard z score): −0.044
ISC-enriched organoids [3]; dose 0.08 uM
  Dose.FC.LYZ.S: 0.065 log 2 fold change
ISC-enriched organoids [3]; dose 0.40 uM
  Dose.FC.LYZ.S: 0.036 log 2 fold change
ISC-enriched organoids [3]; dose 2.00 uM
  Dose.FC.LYZ.S: 0.023 log 2 fold change
ISC-enriched organoids [3]; dose 10.00 uM
  Dose.FC.LYZ.S: −0.007 log 2 fold change

## C=CCNC1=C2C[C@@H](C)C[C@H](OC)[C@H](O)[C@@H](C)/C=C(\C)[C@H](OC(N)=O)[C@@H](OC)/C=C\C=C(/C)C(=O)NC(=CC1=O)C2=O [17-AAG (Tanespimycin)]
ISC-enriched organoids [1]; [4]
  SSMD.CTG_Rep (strictly standardized mean difference): −0.926
ISC-enriched organoids [1]; [5]
  SSMD.CTG_Rep (strictly standardized mean difference): −1.023
ISC-enriched organoids [1]; [6]
  SSMD.CTG_Rep (strictly standardized mean difference): −1.783
ISC-enriched organoids [1]; [7]
  SSMD.CTG_Rep (strictly standardized mean difference): −1.348
ISC-enriched organoids [1]; dose 0.08 uM
  Dose.FC.CTG: −1.012 log 2 fold change
  Z.CTG: −2.418
ISC-enriched organoids [1]; dose 0.40 uM
  Dose.FC.CTG: −1.262 log 2 fold change
  Z.CTG: −3.015
ISC-enriched organoids [1]; dose 2.00 uM
  Dose.FC.CTG: −1.459 log 2 fold change
  Z.CTG: −3.486
ISC-enriched organoids [1]; dose 10.00 uM
  Dose.FC.CTG: −1.446 log 2 fold change
  Z.CTG: −3.454
ISC-enriched organoids [2]; [4]
  SSMD.LYZ.NS_Rep (strictly standardized mean difference): −1.180
ISC-enriched organoids [2]; [5]
  SSMD.LYZ.NS_Rep (strictly standardized mean difference): −1.186
ISC-enriched organoids [2]; [6]
  SSMD.LYZ.NS_Rep (strictly standardized mean difference): −1.053
ISC-enriched organoids [2]; [7]
  SSMD.LYZ.NS_Rep (strictly standardized mean difference): −1.183
ISC-enriched organoids [2]; dose 0.08 uM
  Dose.FC.LYZ.NS: −0.193 log 2 fold change
  Z.LYZ.NS: −1.682
ISC-enriched organoids [2]; dose 0.40 uM
  Dose.FC.LYZ.NS: −0.205 log 2 fold change
  Z.LYZ.NS: −1.786
ISC-enriched organoids [2]; dose 2.00 uM
  Dose.FC.LYZ.NS: −0.142 log 2 fold change
  Z.LYZ.NS: −1.239
ISC-enriched organoids [2]; dose 10.00 uM
  Dose.FC.LYZ.NS: −0.187 log 2 fold change
  Z.LYZ.NS: −1.631
ISC-enriched organoids [3]; [4]
  SSMD.LYZ.S_Rep (strictly standardized mean difference): −1.387
  Z.LYZ.S (standard z score): −1.826
ISC-enriched organoids [3]; [5]
  SSMD.LYZ.S_Rep (strictly standardized mean difference): −1.428
  Z.LYZ.S (standard z score): −2.199
ISC-enriched organoids [3]; [6]
  SSMD.LYZ.S_Rep (strictly standardized mean difference): −1.462
  Z.LYZ.S (standard z score): −2.219
ISC-enriched organoids [3]; [7]
  SSMD.LYZ.S_Rep (strictly standardized mean difference): −1.655
  Z.LYZ.S (standard z score): −1.975
ISC-enriched organoids [3]; dose 0.08 uM
  Dose.FC.LYZ.S: −0.282 log 2 fold change
ISC-enriched organoids [3]; dose 0.40 uM
  Dose.FC.LYZ.S: −0.340 log 2 fold change
ISC-enriched organoids [3]; dose 2.00 uM
  Dose.FC.LYZ.S: −0.343 log 2 fold change
ISC-enriched organoids [3]; dose 10.00 uM
  Dose.FC.LYZ.S: −0.306 log 2 fold change
